The source of these data is patent publication US20090124672A1 (priority 2007, published 2009).

The test system of assay [1] is Sprague-Dawley rats treated with DMCM. Briefly: Social interaction test, DMCM-induced anxiety. Type of assay: in vivo, rat. Particulars: 0.5 mg/kg DMCM. From the text:
(§1) Experienced observers blinded to the experimental conditions carried out the social interaction test in a square open field (60 cm by 60 cm, with 16 15×15 cm squares marked out on the floor). Pairs of rats receiving the same treatment were placed in the arena and the onset of social interactions recorded. This procedure has been validated by previous studies (Overstreet et al. (2002); Overstreet et al. (2003)). Rats were unfamiliar with the open field and lighting conditions were low in order to generate an intermediate level of anxiety-related behavior. Rat pairs matched according to weight and treatment were placed simultaneously in the open field. During the 5-min session, line crosses (by two forepaws) and time spent in social interaction (grooming, sniffing, following) were scored individually for each rat (Kampov-Polevoy et al., 2000; Overstreet et al., 2002, 2003).
(§2) Fifteen min later the rats received a second injection of 0.5 mg/kg DMCM (methyl 6,7-demethoxy-4-ethyl-β-carboline-3-carboxylate) or vehicle (acidified saline). The rats were placed in the open field arena 15 min after the second injection for recording social interaction and locomotor activity for 5-min. Approximately one week later the rats were treated with Compound A (3.75, 7.5 or 15 mg/kg). The 5-HT2C agonist mCPP (m-chlorophenylpiperazine; 0.5 mg/kg) or vehicle (saline) was given 15 min later. After another 15 min period, the social interaction and locomotor activity for five min were recorded.

The target in assay [2] is T1, hALDH2 (recombinant human mitochondria ALDH) (Homo sapiens, UniProt P05091).
T1 sequence (P05091 18-517): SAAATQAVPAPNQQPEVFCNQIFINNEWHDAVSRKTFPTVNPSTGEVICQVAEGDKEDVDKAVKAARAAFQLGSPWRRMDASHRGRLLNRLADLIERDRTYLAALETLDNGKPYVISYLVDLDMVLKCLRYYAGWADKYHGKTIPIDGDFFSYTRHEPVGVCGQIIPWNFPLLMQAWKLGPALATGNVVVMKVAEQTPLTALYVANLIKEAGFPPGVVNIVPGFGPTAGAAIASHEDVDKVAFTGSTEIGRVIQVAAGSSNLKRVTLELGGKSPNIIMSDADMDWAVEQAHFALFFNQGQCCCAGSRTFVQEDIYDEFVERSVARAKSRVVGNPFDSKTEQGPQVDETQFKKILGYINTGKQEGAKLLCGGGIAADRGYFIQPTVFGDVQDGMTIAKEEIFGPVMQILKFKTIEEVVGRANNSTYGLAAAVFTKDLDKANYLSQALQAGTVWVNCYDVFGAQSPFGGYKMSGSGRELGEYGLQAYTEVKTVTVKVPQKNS
Briefly: ALDH2 inhibition assay (NADH formation, formaldehyde substrate). Type of assay: biochemical. Particulars: for inhibition at 1 µM: read-out: hALDH2 inhibition (IC50 hALDH2 column). In a few lines:
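1 nM enzyme in 50 mM sodium phosphate pH 7.4 with 1.2 mM NAD+ and compound at 0.03–1000 nM; reaction started with 0.15 mM formaldehyde at 25 °C. NADH formation followed by fluorescence (ex 340/em 460 nm). IC50 from sigmoidal fits with floating Hill slope; apparent Ki from Morrison equation if tight binding.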

In a further assay the target is T2, hMAO-B (Homo sapiens, UniProt P27338).
T2 construct: purchased Sigma M7441
T2 sequence (P27338 1-520): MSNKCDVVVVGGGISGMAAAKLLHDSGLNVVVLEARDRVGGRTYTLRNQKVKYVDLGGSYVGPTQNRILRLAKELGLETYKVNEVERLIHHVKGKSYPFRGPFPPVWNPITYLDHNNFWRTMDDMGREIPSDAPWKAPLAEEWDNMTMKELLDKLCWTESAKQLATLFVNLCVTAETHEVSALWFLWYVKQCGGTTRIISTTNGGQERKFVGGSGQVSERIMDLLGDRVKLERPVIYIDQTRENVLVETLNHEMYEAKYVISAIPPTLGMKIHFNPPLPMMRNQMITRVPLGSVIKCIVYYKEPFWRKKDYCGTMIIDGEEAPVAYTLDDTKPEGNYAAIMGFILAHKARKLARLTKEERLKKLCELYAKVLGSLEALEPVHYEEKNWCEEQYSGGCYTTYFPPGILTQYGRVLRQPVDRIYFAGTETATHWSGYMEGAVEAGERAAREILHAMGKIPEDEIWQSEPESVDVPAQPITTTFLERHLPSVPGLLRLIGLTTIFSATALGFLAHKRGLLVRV
As to the kind of experiment: MAO-B inhibition assay (Amplex Red, horseradish peroxidase-coupled). Type of assay: biochemical. Particulars: at 10 μM; read-out: hMAO-B inhibition (IC50 hMAO-B). As for the experimental part:
MAO-A (Sigma M7316) and MAO-B (Sigma M7441) inhibition assays were conducted in 96-well micro-plates according to the method described by Zhou et al. [Analytical Biochemistry 253, 169-174, 1997]. Both assays were performed in potassium phosphate buffer (0.1 M, pH 7.5) containing 0.5 mM tyramine (Sigma T2879), 0.12 mM N-acetyl-3,7-dihydrophenoxazine (Amplex Red, Invitrogen A12222), 1.2 unit/ml horseradish peroxidase (Sigma P2088), 0.6 unit/ml MAO-A or 2.5 unit/ml MAO-B, and various concentrations of test compounds (0.1 nM to 10 uM). Reactions were initiated by the addition of a pre-mixed solution of tyramine, horseradish peroxidase and Amplex Red, and were allowed to proceed at 37° C. for 30 min. Enzyme activities were determined by measuring absorbance at 570 nm (SpectralMax Plate reader), absorbance of oxidized Amplex Red generated by this horseradish peroxidase-coupled reaction. Nonspecifically formed products were determined in the presence of 2 and 10 µM clorgyline and deprenyl for MAO-A and MAO-B, respectively. IC50 values were determined by fitting concentration-inhibition data to sigmoidal dose-response curves with two-floating parameters: IC50 and Hill coefficient.

Assay [3] concerns Sprague-Dawley rats treated with mCPP. Briefly: Social interaction test, mCPP-induced anxiety. It is filed as in vivo, rat.
Source text: as §1, §2

As usually defined, the inhibition is the relative decrease from the control value, in per cent. The term IC50 denotes the concentration at which inhibition is half-maximal.

For the compound `CCc1c(C(=O)OC)ncc2[nH]c3cc(OC)c(OC)cc3c12` [DMCM, methyl 6,7-demethoxy-4-ethyl-β-carboline-3-carboxylate, reference compound], the “social interaction (effect of anxiogenic agent)” value in assay [1] (15 min before test) is given as “substantially reduced social interaction”. Also, the “locomotor activity (effect of anxiogenic agent)” value in assay [1] (compared to controls) is reported as “reduced locomotor activity”.
For `N#Cc1ccc(-c2coc3cc(OCc4nnc(-c5cc(F)cc(C(F)(F)F)c5)o4)ccc3c2=O)cc1` [PT-68, 4-[7-({5-[5-fluoro-3-(trifluoromethyl)phenyl](1,3,4-oxadiazol-2-yl)}methoxy)-4-oxochromen-3-yl]benzenecarbonitrile], in assay [2], the inhibition at 1 µM amounted to 33%. Besides, the inhibition at 10 µM on hMAO-B came out at 14%.
In the same order, the values of `CS(=O)(=O)Nc1ccc(-c2coc3cc(OCc4noc(-c5cc(F)cc(C(F)(F)F)c5)n4)ccc3c2=O)cc1` [PT-70, 7-({5-[3-fluoro-5-(trifluoromethyl)phenyl](1,2,4-oxadiazol-3-yl)}methoxy)-3-{4-[(methylsulfonyl)amino]phenyl}chromen-4-one] are 20% and 11%.
Turning to `CS(=O)(=O)c1ccc(-c2coc3cc(OCc4noc(-c5cc(F)cc(C(F)(F)F)c5)n4)ccc3c2=O)cc1` [PT-71, 7-({5-[3-fluoro-5-(trifluoromethyl)phenyl](1,2,4-oxadiazol-3-yl)}methoxy)-3-[4-(methylsulfonyl)phenyl]chromen-4-one], the inhibition at 1 µM in assay [2] is 8%. Further, the inhibition at 10 µM at hMAO-B was 11%.
Taken in the same sequence, the figures for `CC(=O)c1cccc(-c2coc3cc(OCc4noc(-c5cc(F)cc(C(F)(F)F)c5)n4)ccc3c2=O)c1` [PT-73, 3-(3-acetylphenyl)-7-({5-[3-fluoro-5-(trifluoromethyl)phenyl](1,2,4-oxadiazol-3-yl)}methoxy)chromen-4-one] were 18% and 10%.
With `O=c1c(-c2ccc(O)cc2)coc2cc(OCc3nnc(-c4cc(F)cc(C(F)(F)F)c4)o3)ccc12` [PT-74, 7-({5-[3-fluoro-5-(trifluoromethyl)phenyl](1,3,4-oxadiazol-2-yl)}methoxy)-3-(4-hydroxyphenyl)chromen-4-one], the IC50 in assay [2] was 5 nM. On hMAO-B, the inhibition at 10 µM stood at 22%.
As for `O=c1c(-c2ccc(O)cc2)coc2cc(OCc3nnc(-c4ccc(F)cc4)o3)ccc12` [PT-81, 7-{[5-(4-fluorophenyl)(1,3,4-oxadiazol-2-yl)]methoxy}-3-(4-hydroxyphenyl)chromen-4-one], in assay [2], the IC50 is 0.4 nM. For the same compound, on hMAO-B, the inhibition at 10 µM was 12%.
As to `O=c1c(-c2ccc(O)cc2)coc2cc(OCc3ccncc3)ccc12` [PT-82, 3-(4-hydroxyphenyl)-7-(4-pyridylmethoxy)chromen-4-one], in assay [2], the IC50 is 5 nM. Besides, the inhibition at 10 µM at hMAO-B is 15%.
Taken in the same sequence, the figures for `O=C(COc1ccc2c(=O)c(-c3ccc(O)cc3)coc2c1)Nc1ccccc1C(F)(F)F` [PT-84, 2-[3-(4-hydroxyphenyl)-4-oxochromen-7-yloxy]-N-[2-(trifluoromethyl)phenyl]-acetamide] were 15 nM and 20%.
`O=c1c(-c2ccc(O)cc2)coc2cc(OCCc3ccccc3)ccc12` [PT-87, 3-(4-hydroxyphenyl)-7-(2-phenylethoxy)chromen-4-one]: the inhibition at 1 µM in assay [2] is 0.04%. Moreover, the inhibition at 10 µM on hMAO-B worked out at 21%.
For the compound `O=c1c(-c2ccc(O)cc2)coc2cc(OCCOc3ccc(Cl)cc3)ccc12` [PT-89, 7-[2-(4-chlorophenoxy)ethoxy]-3-(4-hydroxyphenyl)chromen-4-one], the IC50 in assay [2] was determined as 22 nM. In addition, the inhibition at 10 µM on hMAO-B was 32%.
For the compound `C[C@@H](NC(=O)COc1ccc2c(=O)c(-c3ccc(O)cc3)coc2c1)c1ccc(F)cc1` [PT-90, N-[(1R)-1-(4-fluorophenyl)ethyl]-2-[3-(4-hydroxyphenyl)-4-oxochromen-7-yloxy]acetamide], the concentration for half-maximal inhibition (IC50) in assay [2] was 6 nM. The inhibition at 10 µM at hMAO-B worked out at 12%.
In the case of `O=c1c(-c2ccc(O)cc2)coc2cc(OCc3ccccn3)ccc12` [PT-91, 3-(4-hydroxyphenyl)-7-(2-pyridylmethoxy)chromen-4-one], the IC50 in assay [2] came out at 7 nM. Also, the inhibition at 10 µM at hMAO-B is 11%.
In the case of `COC(=O)c1coc(COc2ccc3c(=O)c(-c4ccc(O)cc4)coc3c2)n1` [PT-101, methyl 2-{[3-(4-hydroxyphenyl)-4-oxochromen-7-yloxy]methyl}-1,3-oxazole-4-carboxylate], the IC50 in assay [2] is 5 nM. The inhibition at 10 µM at hMAO-B came out at 34%.
Take `C[C@H](NC(=O)COc1ccc2c(=O)c(-c3ccc(O)cc3)coc2c1)c1ccc(F)cc1` [PT-103, N-[(1S)-1-(4-fluorophenyl)ethyl]-2-[3-(4-hydroxyphenyl)-4-oxochromen-7-yloxy]acetamide]: the IC50 in assay [2] was 8 nM. In addition, the inhibition at 10 µM at hMAO-B is 29%.
Turning to `O=c1c(-c2ccc(O)cc2)coc2cc(OC[C@H](O)Cc3ccccc3)ccc12` [PT-109, 7-((2R)-2-hydroxy-3-phenylpropoxy)-3-(4-hydroxyphenyl)chromen-4-one], in assay [2], the IC50 worked out at 14 nM. Moreover, on hMAO-B, the inhibition at 10 µM worked out at 26%.
In the same order, the values of `CS(=O)(=O)Nc1ccc(-c2c(O)oc3cc(OCc4cccc(C(=O)O)c4)ccc3c2=O)cc1` [PT-111, 3-[(2-hydroxy-3-{4-[(methylsulfonyl)amino]phenyl}-4-oxochromen-7-yloxy)methyl]-benzoic acid] are 3 nM and 30%.
As for `Clc1cccc(N2CCNCC2)c1` [mCPP, m-chlorophenylpiperazine], the “social interaction (effect of anxiogenic agent)” value in assay [3] (0.5 mg/kg mCPP, 15 min before test) is on record as “low social interaction score”. The “locomotor activity (effect of anxiogenic agent)” value in assay [3] (0.5 mg/kg mCPP, compared to controls) is “reduced locomotor activity”. Moreover, in assay [3] (rats receiving mCPP 0.5 mg/kg), the “locomotor activity compared to vehicle-treated rats receiving mCPP” value is “no effect”.
